pEC50: −log10 of the molar value. Where “and” joins values, the source holds several entries; their conditions need not be identical. Identical values can stand only once. Square brackets hold non-standard residues; d marks the D form. Peptide text beside a SMILES is read from it.

The record followed here is US8637521B2, “Substituted piperazin-2,5-diones and their use as multifunctional bioactive compounds” (priority 2006, dated 2014).

Series [1] in a line: Solubility of peptides in 0.1% NH4OH. Format: physicochemical. Particulars: for solubility when titrated with 0.1% AcOH: titrated with 0.1% AcOH to pH=8.4 to 8.5.
A further series has as its system Anti-OVA antibody titers. In words: Adjuvant activity, anti-OVA antibody titers by ELISA (Example 8). The class given is in vivo, Balb/c mice. Particulars: for Stimulation index / Anti-protein antibody titer / Pool: Table 8; for Anti-protein antibody titer: one value per mouse; for Pool: pooled sera titer. The protocol:
Adjuvant activity was tested on 11 groups of Balb/c mice (obtained from Stolbovaya Breeding Station). Each group consisted of 7 animals. Three immunizations were performed as follows:
• Group 1—ovalbumin 25 micrograms per animal (Mouse Nos. 1 to 7) • Group 2—ovalbumin 25 micrograms per animal+CFA (Complete Freund's adjuvant) (Mouse Nos. 8 to 14) • Group 3—ovalbumin 25 micrograms per animal+adjuvant of compound 33a 100 micrograms per animal (Mouse Nos. 15 to 21) • Group 4—ovalbumin 25 micrograms per animal+adjuvant of compound 33a 10 micrograms per animal (Mouse Nos. […]) • Group 5—ovalbumin 25 micrograms per animal+adjuvant of compound 33a 1 microgram per animal (Mouse Nos. […]) • Group 6—ovalbumin 25 micrograms per animal+adjuvant of compound 33b 100 micrograms per animal (No. 36 to 42) • Group 7—ovalbumin 25 micrograms per animal+adjuvant of compound 33b 10 micrograms per animal (Mouse Nos. 43 to 49) • Group 8—ovalbumin 25 micrograms per animal+adjuvant of compound 33b 1 microgram per animal (Mouse Nos. 50 to 56) • Group 9—ovalbumin 25 micrograms per animal+adjuvant of compound 17 100 micrograms per animal (Mouse Nos. 57 to 63) • Group 10—ovalbumin 25 micrograms per animal+adjuvant of compound 1710 micrograms per animal (Mouse Nos. 64 to 70) • Group 11—ovalbumin 25 micrograms per animal+adjuvant of compound 171 microgram per animal (Mouse Nos. 71 to 77) Second Immunization:
The same set 14 days after first immunization by injection of 12.5 micrograms of ovalbumin/mouse to mouse nos. 1 to 77.
The same set 28 days after first immunization by injection of 12.5 micrograms of ovalbumin/mouse to mouse nos. 1 to 77.
On day 35 after first immunization, blood samples from each mouse were collected.
OVA (10 micrograms/ml) solution in 0.05 M sodium carbonate buffer (pH 9.5) was added to plate wells, 0.1 ml per well and incubated at 4° C. for 16 hours. The OVA solution was then removed and the plate was washed 4 times with PBS containing 0.05% Tween-20. Such washing was performed after each incubation stage. Serial twofold dilutions of sera (starting from 1:100 or 1:1000) were added to the wells, 0.1 ml per well and incubated at 37° C. for 1 hour followed by incubation (1 hour, 37° C.) with HRP-conjugated goat anti-mouse IgG antibodies (0.1 ml, 1 mg/ml in PBS) and then with a 0.1 mL substrate solution −0.05% H2O2 and 0.05% o-phenylene diamine in 0.05M sodium citrate buffer with a pH of 4.5. The reaction was stopped by adding 100 μl of 12.5% H2SO4. Absorbance was measured at a wavelength of 492 nm using a Multiscan Plus MKII (Flow Laboratories, Great Britain). Significant anti-protein antibody titer (for individual sera) was assessed as the serum dilution produced an absorbance value of more than 0.1 ODU and the minimum exceeds three times the control level. The antibody titer was presented and −log of dilution (FIGS. 2 and 3). The stimulation index for pooled sera was calculated by dividing the test pooled sera dilution producing OD=1 by the dilution of pooled sera from mice immunized without the adjuvant, producing OD=1. The results of the adjuvant activities of cyclo-L-Ala-L-Glu-(L-Trp-OH) (Compound 17), cyclo-L-Lys(N-acetyl-Glycosamine-N-acetyl-muramil)-L-Glu-(L-Trp-OH) (Compound 33a) and cyclo-D-Lys(N-acetyl-Glycosamine-N-acetyl-muramil)-D-Glu-(L-Trp-OH) (Compound 33b) are shown in Table 7 and the adjuvant activities of cyclo [L-Lys(Palmitoyil)-L-Glu(D-Trp-OH)] (Compound 26a) and cyclo [D-Lys(Palmitoyil)-D-Glu(D-Trp-OH)] (Compound 26b) are shown in Table 8 as well as in FIG. 4 which includes the results of the adjuvant activities of cyclo-L-Lys-L-Glu-(L-Trp-OH) (compound 19). It is noted that the peptides of compounds 26a and 26b are soluble in 0.1% NH4OH at a concentration of 1 mg per 1 to 2 ml.

Series [2] deals with hemopoietic precursor cells. In words: Exogenous spleen colonies from bone marrow irradiated ex vivo with 1 Gy. Format: in vivo. The protocol: In this study, the method of exogenous spleen colonies was applied. A suspension of intact bone marrow cells was irradiated ex vivo in the dose of 1 Gy. Different doses of Neogen or cyclic peptides were injected IP, 1M, subcutaneous or introduced per os to lethally irradiated recipients within an hour after the injection of irradiated bone marrow. Colonies were counted on day 8. All data in each group was the mean of three tests.

A further series concerns mice F1(CBAxC57D16). In words: Analgesic activity, tail flick test, water 48° C., intraperitoneal. The class given is in vivo. As to conditions: Table 10; for Initial sensitivity level: before injection. The protocol:
Two hundred and twenty mice F1(CBAxC57D16) first generation hybrids were used for testing of analgesic activity using the “tail flick” test. The water temperature was at 48° C. The maximal effect was for the period of 30 seconds. All peptides were injected intraperitoneally in the doses of 5, 10 or 20 mg/kg. Analgesic effect was estimated in the time interval of 15 to 120 min after peptide injection. Student's t-criterion was used for statistical calculations of the results. Statistical significance were at the level of p≦0.05.

The test system of a further series is BALB/c male mice. In words: Antinociceptive activity, tail flick test with heat radiation, intragastral or intraperitoneal. Format: in vivo. As to the method:
For estimation of oral activity of novel cyclopeptides of the present invention, the “tail flick” test was used. The results were compared with those obtained using intraperitoneal administration.
Antinociceptive activity of the peptides of the present invention was assessed in experiments on BALB/c male mice weighing 22 to 24 g. The peptides were dissolved in saline and administered intraperitoneally or intragastrally.
The “Tail flick” test (D'Amour, F. E. et al. “A Method for Determining Loss of Pain Sensation”, J. Pharmacol. Exp. Ther., Vol. 72, Pages 74 to 79, 1941) was performed on an analgesimeter type 812, Hugo Sachs Electronick KG. Antinociceptive activity was defined as the absence of tail flick response on stimulation with a focused bundle of heat radiation with 6 sec at baseline response of 2.0-3.0 seconds.
Statistical treatment of the results was carried out by the Student's paired t-test.

Series [3] has as its target μ-receptor (isolated guinea pig ileum, GPI) (Cavia porcellus, UniProt P97266). The series is described as follows: Peripheral opioid activity: inhibition of electrically-induced contractions of isolated guinea pig ileum (GPI). The protocol: The segment of GPI about 1 cm long was placed into a 10-ml organ bath containing Krebs solution at 34° C. […] Resting tension of the organ was 1 g. The segment of GPI was stimulated by single pulses duration 1 ms with 0.1 Hz at 80 V. The solution with isolated organs was constantly aerated. The contractions were recorded in an isometrical mode by a sensor K 30 (Hugo Sachs Elektronic KG) with paper register Rikadenki-series (Japan).
The substances tested were dissolved in distilled water and added cumulatively to the organ bath at a volume of 5 to 30 mcl. Each subsequent substance was added after the isolated organs were washed 3 or 4 times for 12-15 min. On the basis of the data obtained, dose-effects curves were plotted and the activity of substances was expressed by IC50 or pD2. The pD2 index was equal to a negative decimal logarithm of the substance concentration causing a 50% of the maximal effect.
New dermorphin analogues were tested in the standard model of Guinea pig ileum binding test.
For confirmation of opioid activity, the specific antagonist naloxson was used in concentration of 10^−5M. Each molecule was tested in 5 independent replications and relative activity was calculated as negative logarithm of EC50 (pD2).

Setting [4] is: 100 μg per animal, no adjuvant = 1.
The mark [5] stands for this setting: OVA + adjuvant 10 μg per animal.
The mark [6] stands for this setting: OVA + adjuvant 100 μg per animal.
[7] abbreviates: 100 μg per animal, no adjuvant 3.9.

Chain of μ-receptor (isolated guinea pig ileum, GPI) (P97266 whole entry): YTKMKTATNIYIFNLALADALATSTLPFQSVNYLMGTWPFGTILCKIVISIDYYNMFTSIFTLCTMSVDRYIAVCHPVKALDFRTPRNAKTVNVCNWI

Take `CCCCCCCCCCCCCCCC(=O)NCCCC[C@H]1NC(=O)[C@@H](CCC(=O)N[C@H](Cc2c[nH]c3ccccc23)C(=O)O)NC1=O` [Compound 26b, cyclo [D-Lys(Palmitoyil)-D-Glu(D-Trp-OH)]]: the “soluble in 0.1% NH4OH at a concentration of” value in series [1] is recorded as 1 mg per 1 to 2 ml. Also, in series [1], the “solubility when titrated with 0.1% AcOH” value was “remain soluble”. Moreover, the “adjuvant activity (FIG. 4), doses at which active” value in the series on Anti-OVA antibody titers is recorded as “not an active compound”. Also, the Stimulation index in the series on Anti-OVA antibody titers (1 μg per animal) was determined as 4.9; in the series with Anti-OVA antibody titers (10 μg per animal), 2.7; with Anti-OVA antibody titers (setting [4]), 2.6. For the same molecule, the Anti-protein antibody titer in the series on Anti-OVA antibody titers (OVA + adjuvant 1 μg per animal) was 5.4 (2×) and 4.5 and 3.8 and 3.5 and 5.1; in the series with Anti-OVA antibody titers (setting [5]), 4.7 (3×) and 5.1 and 4.8 (2×); in the series with Anti-OVA antibody titers (setting [6]), 4.5 (2×) and 4.8 (3×) and 4.2. The values for the Pool in the series on Anti-OVA antibody titers (1 μg per animal), in the series with Anti-OVA antibody titers (10 μg per animal) and in the series with Anti-OVA antibody titers (setting [7]) were 5.1, 4.8 and 4.8, respectively.

Regarding `CCCCCCCCCCCCCCCC(=O)NCCCC[C@@H]1NC(=O)[C@H](CCC(=O)N[C@H](Cc2c[nH]c3ccccc23)C(=O)O)NC1=O` [Compound 26a, cyclo [L-Lys(Palmitoyil)-L-Glu(D-Trp-OH)]], in series [1], the “soluble in 0.1% NH4OH at a concentration of” value is given as 1 mg per 1 to 2 ml. Also, in series [1], the “solubility when titrated with 0.1% AcOH” value is reported as “remain soluble”. Also, the “adjuvant activity (FIG. 4), doses at which active” value with Anti-OVA antibody titers is recorded as “active at 10 μg/kg”. In addition, the values for the Stimulation index with Anti-OVA antibody titers (1 μg per animal), with Anti-OVA antibody titers (10 μg per animal) and in the series with Anti-OVA antibody titers (setting [4]) were 2.0, 6.5 and 3.3, respectively. For the same molecule, the Anti-protein antibody titer in the series on Anti-OVA antibody titers (OVA + adjuvant 1 μg per animal) was 4.8 and 5.1 (4×) and 4.5 and 4.4; in the series on Anti-OVA antibody titers (setting [5]), 5.5 (4×) and 5.8 and 5.7 (2×); with Anti-OVA antibody titers (setting [6]) it was 4.8 (4×) and 4.4 and 5.1 and 5.4. The Pool in the series with Anti-OVA antibody titers (1 μg per animal) stood at 4.4; in the series with Anti-OVA antibody titers (10 μg per animal) it was 5.7; with Anti-OVA antibody titers (setting [7]), 5.1.

Turning to `COC(=O)[C@H](Cc1c[nH]c2ccccc12)NC(=O)CC[C@@H]1NC(=O)[C@H](C)NC1=O` [Compound 16, Cyclo-L-Ala-L-Glu-(L-Trp-OMe)], in series [2] (100 μg/kg per/os), the “% stimulation” value came to 74.8% and the Colony count worked out at 8.9 ± 0.5. In series [2] (100 μg/kg s/c), the “% stimulation” value was found to be 67.2% and the Colony count stood at 8.0 ± 0.5.

For the molecule `CNC(=O)[C@H](CO)NC(=O)[C@@H]1CCCN1C(=O)[C@H](Cc1ccc(O)cc1)NC(=O)[C@@H](C)NC(=O)[C@H](Cc1ccccc1)NC(=O)[C@@H](C)NC(=O)[C@@H](N)Cc1ccc(O)cc1` [Compound 50, H-Tyr-D-Ala-Phe-D-Ala-Tyr-Pro-Ser-NH-CH3, reference compound] (H-Y[dA]F[dA]YPS-NHMe), the “Initial sensitivity level” value in the series on mice F1(CBAxC57D16) (5 mg/kg group) is 3.0 ± 0.1 s; in the series on mice F1(CBAxC57D16) (10 mg/kg group), 2.9 ± 0.2 s. The “Effect duration” value was 9.0 ± 1.7 s with mice F1(CBAxC57D16) (5 mg/kg i.p., 15 min after injection); 10.3 ± 2.6 s in the series on mice F1(CBAxC57D16) (5 mg/kg i.p., 30 min); 14.3 ± 3.7 s in the series on mice F1(CBAxC57D16) (5 mg/kg i.p., 45 min); 10.8 ± 1.9 s with mice F1(CBAxC57D16) (5 mg/kg i.p., 60 min); 6.4 ± 1.5 s with mice F1(CBAxC57D16) (5 mg/kg i.p., 90 min); 3.5 ± 0.2 s in the series on mice F1(CBAxC57D16) (5 mg/kg i.p., 120 min). Also, the “Effect duration” value in the series with mice F1(CBAxC57D16) (10 mg/kg i.p., 15 min) was found to be 5.9 ± 0.7 s; in the series on mice F1(CBAxC57D16) (10 mg/kg i.p., 30 min), 10.7 ± 0.8 s; in the series on mice F1(CBAxC57D16) (10 mg/kg i.p., 45 min), 12.2 ± 2.6 s; in the series with mice F1(CBAxC57D16) (10 mg/kg i.p., 60 min), 7.2 ± 1.2 s; in the series on mice F1(CBAxC57D16) (10 mg/kg i.p., 90 min) it was 6.9 ± 1.4 s; with mice F1(CBAxC57D16) (10 mg/kg i.p., 120 min), 3.7 ± 0.4 s. Besides, the “Effect duration” value in the series with BALB/c male mice (Table 11, oral 50 mg/kg, 15 min, cut-off 6 sec) amounted to 3.3 ± 0.6 s; in the series on BALB/c male mice (Table 11, oral 50 mg/kg, 30 min), 2.3 ± 0.1 s; in the series on BALB/c male mice (Table 11, oral 50 mg/kg, 90 min), 4.3 ± 0.6 s; in the series with BALB/c male mice (Table 12, intraperitoneal 10 mg/kg, 15 min, cut-off 6 sec), 3.6 ± 0.7 s. The “Initial sensitivity level, mean” value worked out at 2.6 ± 0.1 s in the series on BALB/c male mice (Table 11, oral 50 mg/kg group, before administration) and 2.0 ± 0.1 s in the series on BALB/c male mice (Table 12, intraperitoneal 10 mg/kg group, before injection). For the same molecule, the “Value of pD2 (M ± m)” value in series [3] (negative logarithm of EC50) was determined as 7.95 ± 0.07. Also, the pEC50 in series [3] (read-out: Median EC50 in M, concentration reducing contraction amplitude by 50%, 5 replications) is 8.02.
